Reference: ChEMBL document CHEMBL4184310, “Structure-based design and structure-activity relationships of 1,2,3,4-tetrahydroisoquinoline derivatives as potential PDE4 inhibitors” (Bioorg Med Chem Lett, 2018)
Values belong to the compound of their own block, whether it stands above or below them.

Columns and labels:
[1] = biological target: 3',5'-cyclic-AMP phosphodiesterase 4B (Homo sapiens, UniProt Q07343); assay: Inhibition of human U937 cells-derived PDE4B using [3H]-cAMP as substrate after 30 mins
[2] = system: Rattus norvegicus; assay: Anti-inflammatory activity in Sprague-Dawley rat model of LPS-induced asthma/COPD assessed as inhibition of neutrophilia in BALF at 10 mg/kg, po administered 30 mins prior to LPS challenge for 40 mins relative to control; format: functional
[3] = system: Mus musculus; assay: Anti-inflammatory activity in Swiss albino mouse model of sepsis assessed as inhibition of LPS-induced TNFalpha release at 10 mg/kg, po administered 30 mins prior to LPS challenge for 90 mins by ELISA relative to control; format: functional
[4] = Inhibition of PDE4 in human PBMC assessed as reduction in LPS-stimulated TNFalpha release preincubated for 30 mins followed by LPS stimulation for 18 hrs by TR-FRET assay; format: cell-based
[5] = Stability in rat plasma assessed as parent compound remaining after 4 hrs; format: ADME, cell-free; conditions: read-out: Stability
[6] = Stability in rat plasma assessed as parent compound remaining after 8 hrs; format: ADME, cell-free; conditions: read-out: Stability
[7] = biological target: 3',5'-cyclic-AMP phosphodiesterase 4D (Homo sapiens, UniProt Q08499); assay: Inhibition of human U937 cells-derived PDE4D using [3H]-cAMP as substrate after 30 mins
[8] = biological target: T1, cGMP-dependent 3',5'-cyclic phosphodiesterase (Homo sapiens, UniProt O00408); assay: Inhibition of human PDE2A
[9] = biological target: T2, Dual specificity calcium/calmodulin-dependent 3',5'-cyclic nucleotide phosphodiesterase 1A (Homo sapiens, UniProt P54750); assay: Inhibition of human PDE1A
[10] = biological target: T3, cAMP and cAMP-inhibited cGMP 3',5'-cyclic phosphodiesterase 10A (Homo sapiens, UniProt Q9Y233); assay: Inhibition of human PDE10A2 at 50 uM relative to control
[11] = biological target: T4, Dual 3',5'-cyclic-AMP and -GMP phosphodiesterase 11A (Homo sapiens, UniProt Q9HCR9); assay: Inhibition of human PDE11A at 50 uM relative to control
[12] = biological target: T5, High affinity cAMP-specific and IBMX-insensitive 3',5'-cyclic phosphodiesterase 8A (Homo sapiens, UniProt O60658); assay: Inhibition of human PDE8A1 at 50 uM relative to control
[13] = biological target: T6, High affinity cGMP-specific 3',5'-cyclic phosphodiesterase 9A (Homo sapiens, UniProt O76083); assay: Inhibition of human PDE9A2 at 50 uM relative to control
[14] = biological target: T7, High affinity 3',5'-cyclic-AMP phosphodiesterase 7A (Homo sapiens, UniProt Q13946); assay: Inhibition of human PDE7A at 50 uM relative to control
[15] = biological target: T8, Cone cGMP-specific 3',5'-cyclic phosphodiesterase subunit alpha' (Homo sapiens, UniProt P51160); assay: Inhibition of human PDE6C at 50 uM relative to control
[16] = biological target: T9, cGMP-specific 3',5'-cyclic phosphodiesterase (Homo sapiens, UniProt O76074); assay: Inhibition of human PDE5A at 50 uM relative to control
[17] = biological target: T10, cGMP-inhibited 3',5'-cyclic phosphodiesterase 3B (Homo sapiens, UniProt Q13370); assay: Inhibition of human PDE3B at 50 uM relative to control
[18] = biological target: T1, cGMP-dependent 3',5'-cyclic phosphodiesterase; assay: Inhibition of human PDE2A at 50 uM relative to control
[19] = biological target: T2, Dual specificity calcium/calmodulin-dependent 3',5'-cyclic nucleotide phosphodiesterase 1A; assay: Inhibition of human PDE1A at 50 uM relative to control
[20] = species on record: Homo sapiens; assay: Selectivity ratio of IC50 for human U937 cells-derived PDE4D to IC50 for human U937 cells-derived PDE4B
[21] = species on record: Homo sapiens; assay: Potency index, ratio of rolipram IC50 to compound IC50 for inhibition of PDE4 in human PBMC
[22] = biological target: T10, cGMP-inhibited 3',5'-cyclic phosphodiesterase 3B; assay: Inhibition of human PDE3B
[23] = biological target: T9, cGMP-specific 3',5'-cyclic phosphodiesterase; assay: Inhibition of human PDE5A
[24] = biological target: T8, Cone cGMP-specific 3',5'-cyclic phosphodiesterase subunit alpha'; assay: Inhibition of human PDE6C
[25] = biological target: T7, High affinity 3',5'-cyclic-AMP phosphodiesterase 7A; assay: Inhibition of human PDE7A
[26] = biological target: T5, High affinity cAMP-specific and IBMX-insensitive 3',5'-cyclic phosphodiesterase 8A; assay: Inhibition of human PDE8A1
[27] = biological target: T6, High affinity cGMP-specific 3',5'-cyclic phosphodiesterase 9A; assay: Inhibition of human PDE9A2
[28] = biological target: T3, cAMP and cAMP-inhibited cGMP 3',5'-cyclic phosphodiesterase 10A; assay: Inhibition of human PDE10A2
[29] = biological target: T4, Dual 3',5'-cyclic-AMP and -GMP phosphodiesterase 11A; assay: Inhibition of human PDE11A

T3 sequence (Q9Y233 whole entry): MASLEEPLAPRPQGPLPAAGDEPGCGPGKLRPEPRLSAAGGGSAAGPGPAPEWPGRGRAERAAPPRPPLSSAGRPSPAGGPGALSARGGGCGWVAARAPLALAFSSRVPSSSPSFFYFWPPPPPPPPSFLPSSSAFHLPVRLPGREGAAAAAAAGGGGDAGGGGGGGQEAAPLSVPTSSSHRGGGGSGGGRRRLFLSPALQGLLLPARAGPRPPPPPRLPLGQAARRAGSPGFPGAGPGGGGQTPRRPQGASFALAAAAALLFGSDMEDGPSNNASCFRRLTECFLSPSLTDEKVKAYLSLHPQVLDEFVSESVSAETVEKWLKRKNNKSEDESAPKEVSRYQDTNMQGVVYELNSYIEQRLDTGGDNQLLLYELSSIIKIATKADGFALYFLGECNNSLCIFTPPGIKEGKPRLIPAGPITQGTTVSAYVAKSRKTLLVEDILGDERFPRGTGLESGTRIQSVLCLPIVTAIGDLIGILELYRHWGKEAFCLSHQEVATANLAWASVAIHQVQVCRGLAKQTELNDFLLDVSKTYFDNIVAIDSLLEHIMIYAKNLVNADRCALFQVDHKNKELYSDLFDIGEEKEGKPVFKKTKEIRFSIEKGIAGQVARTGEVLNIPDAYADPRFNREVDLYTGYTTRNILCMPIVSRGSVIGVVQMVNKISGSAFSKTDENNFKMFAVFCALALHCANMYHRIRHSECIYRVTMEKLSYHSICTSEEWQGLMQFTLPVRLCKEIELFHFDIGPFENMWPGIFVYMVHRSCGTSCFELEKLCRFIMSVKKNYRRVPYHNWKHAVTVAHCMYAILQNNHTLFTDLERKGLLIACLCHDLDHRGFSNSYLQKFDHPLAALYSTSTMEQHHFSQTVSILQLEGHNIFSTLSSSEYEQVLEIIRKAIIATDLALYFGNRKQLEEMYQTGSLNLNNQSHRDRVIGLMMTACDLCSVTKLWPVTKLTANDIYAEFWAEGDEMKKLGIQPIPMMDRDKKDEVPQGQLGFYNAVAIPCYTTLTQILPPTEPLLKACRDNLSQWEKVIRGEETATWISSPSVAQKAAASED
T8 sequence (P51160 whole entry): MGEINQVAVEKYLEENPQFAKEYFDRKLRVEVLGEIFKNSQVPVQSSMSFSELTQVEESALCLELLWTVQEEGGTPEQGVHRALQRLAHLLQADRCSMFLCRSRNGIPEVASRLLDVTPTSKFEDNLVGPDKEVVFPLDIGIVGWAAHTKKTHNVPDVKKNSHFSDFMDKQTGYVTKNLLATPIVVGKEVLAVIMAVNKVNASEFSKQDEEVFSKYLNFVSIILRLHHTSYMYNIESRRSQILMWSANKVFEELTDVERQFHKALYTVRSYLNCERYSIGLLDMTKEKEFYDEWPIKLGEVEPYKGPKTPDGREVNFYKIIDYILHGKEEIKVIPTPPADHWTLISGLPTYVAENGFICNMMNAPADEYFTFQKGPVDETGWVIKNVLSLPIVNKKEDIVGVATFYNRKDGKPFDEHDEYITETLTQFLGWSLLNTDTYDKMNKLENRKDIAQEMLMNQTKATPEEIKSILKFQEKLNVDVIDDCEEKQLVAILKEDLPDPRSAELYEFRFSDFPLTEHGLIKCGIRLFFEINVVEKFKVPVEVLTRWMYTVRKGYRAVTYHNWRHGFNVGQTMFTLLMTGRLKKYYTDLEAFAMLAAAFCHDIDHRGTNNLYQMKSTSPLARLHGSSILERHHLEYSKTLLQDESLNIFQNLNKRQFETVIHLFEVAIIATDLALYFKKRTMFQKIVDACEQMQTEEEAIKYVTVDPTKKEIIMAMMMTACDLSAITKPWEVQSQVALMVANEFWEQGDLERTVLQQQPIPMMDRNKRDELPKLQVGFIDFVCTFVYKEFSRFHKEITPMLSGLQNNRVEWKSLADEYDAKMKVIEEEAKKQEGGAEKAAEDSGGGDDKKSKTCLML
3',5'-cyclic-AMP phosphodiesterase 4D, sequence (Q08499 whole entry): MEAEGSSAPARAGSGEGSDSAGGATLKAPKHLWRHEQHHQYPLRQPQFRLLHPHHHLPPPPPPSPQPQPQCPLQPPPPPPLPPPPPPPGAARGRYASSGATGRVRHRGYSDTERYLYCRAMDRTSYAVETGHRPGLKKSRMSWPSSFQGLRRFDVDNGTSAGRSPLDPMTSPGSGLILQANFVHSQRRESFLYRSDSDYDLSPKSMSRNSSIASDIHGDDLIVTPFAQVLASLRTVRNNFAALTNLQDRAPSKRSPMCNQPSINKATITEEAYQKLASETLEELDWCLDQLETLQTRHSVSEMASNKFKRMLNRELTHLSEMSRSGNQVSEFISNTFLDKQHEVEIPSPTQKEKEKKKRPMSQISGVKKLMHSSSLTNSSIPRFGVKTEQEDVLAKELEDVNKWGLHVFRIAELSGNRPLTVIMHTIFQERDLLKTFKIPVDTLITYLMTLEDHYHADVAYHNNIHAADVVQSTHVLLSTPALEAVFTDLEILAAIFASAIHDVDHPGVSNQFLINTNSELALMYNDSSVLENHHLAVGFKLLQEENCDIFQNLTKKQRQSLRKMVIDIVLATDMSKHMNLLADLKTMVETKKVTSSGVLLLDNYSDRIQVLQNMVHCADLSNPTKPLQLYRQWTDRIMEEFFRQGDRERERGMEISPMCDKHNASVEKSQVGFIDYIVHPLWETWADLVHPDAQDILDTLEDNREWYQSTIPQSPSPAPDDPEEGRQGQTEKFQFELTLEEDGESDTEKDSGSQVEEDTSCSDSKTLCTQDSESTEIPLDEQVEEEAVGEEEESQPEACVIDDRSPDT
3',5'-cyclic-AMP phosphodiesterase 4B, sequence (Q07343 whole entry): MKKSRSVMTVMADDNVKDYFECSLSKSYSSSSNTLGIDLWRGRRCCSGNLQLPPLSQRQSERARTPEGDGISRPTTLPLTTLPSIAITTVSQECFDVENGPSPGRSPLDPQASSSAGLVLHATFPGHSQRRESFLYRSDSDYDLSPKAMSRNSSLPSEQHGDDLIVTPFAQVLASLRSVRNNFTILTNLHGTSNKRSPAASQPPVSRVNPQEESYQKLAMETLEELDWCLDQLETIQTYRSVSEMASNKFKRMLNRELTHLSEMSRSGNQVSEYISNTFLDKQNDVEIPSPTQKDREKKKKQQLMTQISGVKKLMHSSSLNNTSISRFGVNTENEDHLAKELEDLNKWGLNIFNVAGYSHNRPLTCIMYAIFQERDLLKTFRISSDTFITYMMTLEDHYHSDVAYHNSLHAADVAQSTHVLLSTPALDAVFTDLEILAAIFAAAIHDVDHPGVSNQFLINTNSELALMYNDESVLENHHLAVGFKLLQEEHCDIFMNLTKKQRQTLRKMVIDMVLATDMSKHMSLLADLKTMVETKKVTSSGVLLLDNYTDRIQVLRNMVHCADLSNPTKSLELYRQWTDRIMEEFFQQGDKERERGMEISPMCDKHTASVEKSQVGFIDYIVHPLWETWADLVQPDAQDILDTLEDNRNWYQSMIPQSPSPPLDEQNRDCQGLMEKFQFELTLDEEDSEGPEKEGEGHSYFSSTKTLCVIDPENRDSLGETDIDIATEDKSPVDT
T7 sequence (Q13946 whole entry): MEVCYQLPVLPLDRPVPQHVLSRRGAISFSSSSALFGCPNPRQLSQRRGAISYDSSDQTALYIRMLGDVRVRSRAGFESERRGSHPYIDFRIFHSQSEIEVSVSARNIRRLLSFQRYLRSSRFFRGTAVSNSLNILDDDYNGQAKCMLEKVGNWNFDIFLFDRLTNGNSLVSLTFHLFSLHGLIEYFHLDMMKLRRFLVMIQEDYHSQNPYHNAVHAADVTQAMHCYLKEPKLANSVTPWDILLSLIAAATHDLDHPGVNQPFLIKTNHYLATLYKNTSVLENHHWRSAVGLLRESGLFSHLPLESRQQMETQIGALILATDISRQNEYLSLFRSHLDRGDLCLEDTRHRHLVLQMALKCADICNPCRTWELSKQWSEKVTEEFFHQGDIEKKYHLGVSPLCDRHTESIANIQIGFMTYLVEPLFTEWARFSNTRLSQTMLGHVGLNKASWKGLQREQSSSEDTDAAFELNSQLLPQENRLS
T2 sequence (P54750 whole entry): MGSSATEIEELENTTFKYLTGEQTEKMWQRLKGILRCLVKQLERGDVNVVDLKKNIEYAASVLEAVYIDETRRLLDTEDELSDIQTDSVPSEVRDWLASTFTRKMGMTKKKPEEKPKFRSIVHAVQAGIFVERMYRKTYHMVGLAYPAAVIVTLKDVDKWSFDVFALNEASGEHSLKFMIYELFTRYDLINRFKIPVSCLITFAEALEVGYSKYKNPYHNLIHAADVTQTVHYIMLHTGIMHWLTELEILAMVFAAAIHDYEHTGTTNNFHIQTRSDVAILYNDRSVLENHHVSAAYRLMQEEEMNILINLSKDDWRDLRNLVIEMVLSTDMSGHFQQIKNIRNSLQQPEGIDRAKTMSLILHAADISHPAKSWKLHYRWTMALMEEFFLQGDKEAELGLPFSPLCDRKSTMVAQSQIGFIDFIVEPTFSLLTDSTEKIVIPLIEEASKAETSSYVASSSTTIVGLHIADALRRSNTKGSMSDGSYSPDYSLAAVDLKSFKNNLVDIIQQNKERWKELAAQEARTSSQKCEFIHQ
T6 sequence (O76083 whole entry): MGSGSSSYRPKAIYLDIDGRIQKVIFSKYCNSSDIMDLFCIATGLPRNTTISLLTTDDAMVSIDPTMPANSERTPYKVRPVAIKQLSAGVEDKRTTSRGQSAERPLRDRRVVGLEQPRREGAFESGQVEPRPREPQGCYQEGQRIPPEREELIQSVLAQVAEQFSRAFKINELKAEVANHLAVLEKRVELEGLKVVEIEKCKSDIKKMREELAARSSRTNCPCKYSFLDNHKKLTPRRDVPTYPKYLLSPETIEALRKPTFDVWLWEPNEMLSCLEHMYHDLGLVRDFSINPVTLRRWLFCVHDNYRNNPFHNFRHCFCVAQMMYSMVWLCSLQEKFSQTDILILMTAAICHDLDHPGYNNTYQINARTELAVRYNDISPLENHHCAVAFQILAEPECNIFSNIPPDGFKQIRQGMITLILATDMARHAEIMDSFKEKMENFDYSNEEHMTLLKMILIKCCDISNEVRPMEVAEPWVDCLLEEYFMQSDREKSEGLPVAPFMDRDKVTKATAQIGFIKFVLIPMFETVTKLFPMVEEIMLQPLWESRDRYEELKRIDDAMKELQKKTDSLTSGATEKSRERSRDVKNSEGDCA

- IC50 [1]: 8.05 µM
Structure (SMILES): COc1cc2c(cc1OC1CCCC1)CN(C(=O)c1ccc(OC(F)(F)F)cc1)C(C(=O)N(C)C)C2 (centres undefined)

- IC50 [4]: 1.21 µM
Structure (SMILES): O=C(Nc1c(Cl)cncc1Cl)c1ccc(OC(F)F)c(OCC2CC2)c1 [ROFLUMILAST]
- inhibition in vivo at 10 mg/kg [2]: 97.6%
- inhibition in vivo at 10 mg/kg [3]: 98.8%

- IC50 [1]: > 50 µM
Structure (SMILES): CCCCCOC(=O)C1Cc2cc(OC)c(OC3CCCC3)cc2CN1C(=O)c1ccc(OC(F)(F)F)cc1 (centres undefined)

- remaining at 4 h [5]: 84.2%
- remaining at 8 h [6]: 71.6%
- IC50 [1]: > 50 µM
Structure (SMILES): COc1cc2c(cc1OC1CCCC1)CN(C(=O)c1ccc(OC(F)(F)F)cc1)C(C(=O)OCc1ccccc1)C2 (centres undefined)

- IC50 [4]: 69.3 µM
- IC50 [1]: 8.35 µM
Structure (SMILES): COc1cc2c(cc1OC1CCCC1)CN(C(=O)c1ccc(OC(F)(F)F)cc1)C(C(=O)O)C2 (centres undefined)

- IC50 [4]: 28.6 µM
- IC50 [7]: 18.3 µM
- IC50 [1]: 2.85 µM
Structure (SMILES): COc1ccc(C(=O)N2CCc3cc(OC)c(OC4CCCC4)cc3C2)cc1OC

- IC50 [1]: 16.4 µM
Structure (SMILES): CNC(=O)C1Cc2cc(OC)c(OC3CCCC3)cc2CN1C(=O)c1ccc(OC(F)(F)F)cc1 (centres undefined)

- IC50 [7]: 134 µM
- IC50 [1]: 11 µM
Structure (SMILES): COc1cc2c(cc1OC1CCCC1)CN(S(=O)(=O)c1ccc(Cl)cc1)CC2

- IC50 [1]: 20.5 µM
Structure (SMILES): COc1cc2c(cc1OC1CCCC1)CN(C(=O)c1cccc(Cl)c1)CC2

- IC50 [7]: 92.6 µM
- IC50 [1]: 18.4 µM
Structure (SMILES): COc1cc2c(cc1OC1CCCC1)CN(C(=O)c1ccc(Cl)cc1)CC2

- IC50 [4]: 29.7 µM
- IC50 [7]: 43.6 µM
- IC50 [1]: 3.1 µM
Structure (SMILES): COc1ccc(S(=O)(=O)N2CCc3cc(OC)c(OC4CCCC4)cc3C2)cc1

- IC50 [8]: > 100 µM
- IC50 [9]: > 100 µM
- inhibition [10]: 3%
- inhibition [11]: 6%
- inhibition [12]: 13%
- inhibition [13]: 6%
- inhibition [14]: 2%
- inhibition [15]: 7%
- inhibition [16]: 12%
- remaining at 4 h [5]: 72.8%
- inhibition [17]: 5%
- inhibition [18]: 9%
- inhibition [19]: 4%
- Ratio IC50 [20]: 21
- Ratio IC50 [21]: 5
- remaining at 8 h [6]: 51.8%
- IC50 [4]: 2.12 µM
- IC50 [7]: 18.4 µM
- IC50 [1]: 0.88 µM
- IC50 [22]: > 100 µM
- IC50 [23]: > 100 µM
- IC50 [24]: > 100 µM
- IC50 [25]: > 100 µM
- IC50 [26]: > 100 µM
- IC50 [27]: > 100 µM
- IC50 [28]: > 100 µM
- IC50 [29]: > 100 µM
Structure (SMILES): COC(=O)C1Cc2cc(OC)c(OC3CCCC3)cc2CN1C(=O)c1ccc(OC(F)(F)F)cc1 (centres undefined)
- inhibition in vivo at 10 mg/kg [2]: 45.3%
- inhibition in vivo at 10 mg/kg [3]: 50.2%

- IC50 [4]: 31.3 µM
- IC50 [7]: 13.3 µM
- IC50 [1]: 2.38 µM
Structure (SMILES): COc1ccc(C(=O)N2CCc3cc(OC)c(OC4CCCC4)cc3C2)cc1

- IC50 [1]: 12.7 µM
Structure (SMILES): CCN(CC)C(=O)C1Cc2cc(OC)c(OC3CCCC3)cc2CN1C(=O)c1ccc(OC(F)(F)F)cc1 (centres undefined)

- IC50 [4]: 9.85 µM
- IC50 [7]: 6.5 µM
- IC50 [1]: 1.05 µM
Structure (SMILES): COc1cc2c(cc1OC1CCCC1)CN(C(=O)c1ccc(OC(F)(F)F)cc1)CC2

- IC50 [4]: 36.6 µM
- IC50 [7]: 18.6 µM
- IC50 [1]: 3.42 µM
Structure (SMILES): COc1ccc(C(=O)N2CCc3cc(OC)c(OC4CCCC4)cc3C2)cc1O

Structure (SMILES): COc1ccc(C2CNC(=O)C2)cc1OC1CCCC1 (centres undefined) [ROLIPRAM]
- inhibition in vivo at 10 mg/kg [2]: 32.5%
- inhibition in vivo at 10 mg/kg [3]: 41.2%

- remaining at 4 h [5]: 73.7%
- Ratio IC50 [20]: 21
- remaining at 8 h [6]: 54.9%
- IC50 [4]: 12.6 µM
- IC50 [7]: 32.7 µM
- IC50 [1]: 1.62 µM
Structure (SMILES): CCOC(=O)C1Cc2cc(OC)c(OC3CCCC3)cc2CN1C(=O)c1ccc(OC(F)(F)F)cc1 (centres undefined)

- IC50 [4]: 48.3 µM
- IC50 [7]: 16.3 µM
- IC50 [1]: 3.25 µM
Structure (SMILES): COc1cc2c(cc1OC1CCCC1)CN(C(=O)c1ccc(O)cc1)CC2

- IC50 [8]: > 100 µM
- IC50 [9]: > 100 µM
- inhibition [10]: 3%
- inhibition [11]: 7%
- inhibition [12]: 11%
- inhibition [13]: 4%
- inhibition [14]: 2%
- inhibition [15]: 8%
- inhibition [16]: 10%
- inhibition [17]: 4%
- inhibition [18]: 10%
- inhibition [19]: 3%
- IC50 [4]: 5.75 µM
- IC50 [7]: 11.6 µM
- IC50 [1]: 0.95 µM
- IC50 [22]: > 100 µM
- IC50 [23]: > 100 µM
- IC50 [24]: > 100 µM
- IC50 [25]: > 100 µM
- IC50 [26]: > 100 µM
- IC50 [27]: > 100 µM
- IC50 [28]: > 100 µM
- IC50 [29]: > 100 µM
Structure (SMILES): COc1cc2c(cc1OC1CCCC1)CN(S(=O)(=O)c1ccc(NC(C)=O)cc1)CC2
- inhibition in vivo at 10 mg/kg [2]: 37.1%
- inhibition in vivo at 10 mg/kg [3]: 44.3%

- IC50 [1]: > 50 µM
Structure (SMILES): COc1cc2c(cc1OC1CCCC1)CN(C(=O)c1ccc(OC(F)(F)F)cc1)C(C(=O)OC1CCCC1)C2 (centres undefined)

- IC50 [1]: 19.7 µM
Structure (SMILES): COc1cccc(C(=O)N2CCc3cc(OC)c(OC4CCCC4)cc3C2)c1
